Experimental data reported in patent US20190300882A1, “METHODS OF TREATING NEUROBLASTOMA AND REAGENTS THEREFOR” (GARVAN INSTITUTE OF MEDICAL RESEARCH, priority 2016, published 2019).

Assays:
Assay type in all cases: cell-based
KELLY cells [1] = assay: Primary functional miRNA mimic screen, CellTiter-Glo cell viability; conditions: miRNA mimic 25 nM alone, 144 hours post-transfection
Text: Breast cancer cell lines (MDA-MB-231, MDA-MB-468, SK-BR-3; BT474) and prostate cancer cell lines (PC3, DU145) were obtained from American Type Culture Collection (ATCC). Neuroblastoma cell lines (KELLY, SHEP) were received from Children's Cancer Institute (CCIA). The KELLY cells were selected as a MYCN amplified neuroblastoma cell line and the SHEP cells were selected as a MYCN wild-type neuroblastoma cell line. All breast and prostate cancer cell lines were cultivated in RPMI media supplemented with 10% FCS, HEPES, and insulin. […] Each of the cell lines were reverse transfected in 384-well plate format with 25 nM of a miRNA from the Dharmacon miRNA mimic or inhibitor libraries (version 16.0) using liquid-handling robot Calliper Sciclone ALH3000 according to the conditions described in Table 3. […] Luminescence measurements were taken on the Synergy H4 high-throughput multimode microplate reader. All screens were performed in duplicates. Raw viability was normalised to a nontargeting control (OTP) or mock wells, and death genes or controls inducing varying levels of death were used to monitor transfection efficiency and to define dynamic range in each screen (FIG. 1). To define screen hits, normalised viability scores were binned in the following manner: CV1 bin included candidates with viability >=0.8; […] Only LC candidates were defined as screen hits.

SHEP cells [2] = assay: as above; conditions: miRNA mimic 25 nM alone, 144 hours post-transfection
Text: Breast cancer cell lines (MDA-MB-231, MDA-MB-468, SK-BR-3; BT474) and prostate cancer cell lines (PC3, DU145) were obtained from American Type Culture Collection (ATCC). Neuroblastoma cell lines (KELLY, SHEP) were received from Children's Cancer Institute (CCIA). The KELLY cells were selected as a MYCN amplified neuroblastoma cell line and the SHEP cells were selected as a MYCN wild-type neuroblastoma cell line.
All breast and prostate cancer cell lines were cultivated in RPMI media supplemented with 10% FCS, HEPES, and insulin. The neuroblastoma cell lines, KELLY, SHEP, were grown in 10% FCS/RPMI and 10% FCS/DMEM, respectively.
(§1) Each of the cell lines were reverse transfected in 384-well plate format with 25 nM of a miRNA from the Dharmacon miRNA mimic or inhibitor libraries (version 16.0) using liquid-handling robot Calliper Sciclone ALH3000 according to the conditions described in Table 3. After 24 hours, media was changed using BioTek 406, and 144 hours post-transfection, cell viability was determined using CellTiter-Glo luminescent assay (Promega) at 1:2 dilution. Luminescence measurements were taken on the Synergy H4 high-throughput multimode microplate reader. All screens were performed in duplicates.
Raw viability was normalised to a nontargeting control (OTP) or mock wells, and death genes or controls inducing varying levels of death were used to monitor transfection efficiency and to define dynamic range in each screen (FIG. 1). To define screen hits, normalised viability scores were binned in the following manner: CV1 bin included candidates with viability >=0.8; CV2 bin included candidates with viability <0.8 and >0.5, and LC bin was assigned to candidates with normalised viability <=0.5. Only LC candidates were defined as screen hits.

KELLY cells [3] = assay: Secondary validation screen of lethal miRNAs, cell viability; conditions: miRNA mimic alone
Description: as §1
(§2) The secondary validation screens were performed in accordance with the genome-wide screens described in Example 1 and Example 2, respectively, with the exception that an additional MYCN-amplified neuroblastoma cell line (SK-N-DZ) was added to each screen.
(§3) Furthermore, five additional non-active miRNAs discovered to have no measureable effect across all treatment groups of the genome-wide screen (‘non-lethal’ miRNAs) were included as negative controls.

SHEP cells [4] = assay: as above; conditions: miRNA mimic alone
Description: as §1, §2, §3

[5] = test system: SK-N-DZ MYCN-amplified neuroblastoma cell line; assay: Secondary validation screen of lethal miRNAs, additional cell line, cell viability; conditions: miRNA mimic alone
Description: as §1, §2, §3

RBFOX2 mRNA = assay: qPCR of target mRNA in KELLY cells transfected with miRNA mimic; conditions: 25 nM mimic, 96 h after transfection
Description: (§4) KELLY cells were transfected with let-7b-5p, miR-101-3p, and miR-202-3p mimics and real-time PCR performed to determine any changes in mRNA expression levels of HAND1, RGS16, RBFOX2, and ACVR2B. Briefly, KELLY cells were grown in 10% FCS/RPMI and transfected with 25 nM of let-7b-5p, miR-101-3p or miR-202-3p mimic using Dharmafect 1 (DF1) transfection reagent. 96 h after transfection, the cells were harvested and total RNA was extracted using miRneasy kit (Qiagen). RNA was then subjected to reverse transcription to generate cDNA. Quantification of gene expression was then performed using qPCR and Taqman probes and primers for HAND1, RGS 16, RBFOX2, and ACVR2B. The levels of gene expression for HAND1, RGS16, RBFOX2, and ACVR2B were normalised to the housekeeping genes B2M and GAPDH

RGS16 mRNA = assay: as above; conditions: 25 nM mimic, 96 h after transfection
Description: as §4

hsa-miR-101-3p (UACAGUACUGUGAUAACUGAA; chemistry not given here; listed as Homo sapiens)
Primary screen Viability (% of control) KELLY (KELLY cells [1]): 6 % of control | Primary screen Viability (% of control) SHEP (SHEP cells [2]): 58 % of control | Secondary screen Viability (% of control) KELLY (KELLY cells [3]): 7 % of control | Secondary screen Viability (% of control) SHEP (SHEP cells [4]): 69 % of control | Additional cell line Viability (% of control) SKNDZ [5]: 72 % of control | RBFOX2 mRNA levels (RBFOX2 mRNA): did not affect | RGS16 mRNA levels (RGS16 mRNA): did not affect
